Data from patent US10822587B2, “T cell balance gene expression, compositions of matters and methods of use thereof” (The Broad Institute, Inc., priority 2013, dated 2020).
“Also recorded” adds a separate entry of the source.

Key:
PROCR = target: T1, PROCR (Mus musculus, UniProt Q64695); assay: Quantitative RT-PCR of pathogenic signature genes in Th17 cells differentiated in the presence of activated protein C; assay type: cell-based
T1 construct: endogenous in cells; host or cells: primary naïve CD4+ T cells (mouse spleen/lymph node) polarized to Th17 with TGF-β1 + IL-6
T1 sequence (Q64695 18-242): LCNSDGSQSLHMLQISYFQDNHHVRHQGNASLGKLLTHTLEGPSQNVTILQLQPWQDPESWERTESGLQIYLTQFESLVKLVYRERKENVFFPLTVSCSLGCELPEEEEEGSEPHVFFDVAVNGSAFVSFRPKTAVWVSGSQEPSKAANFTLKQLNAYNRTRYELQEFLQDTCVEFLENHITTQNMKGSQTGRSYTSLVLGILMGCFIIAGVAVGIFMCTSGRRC
Source text: FIG. 23A depicts quantitative RT-PCR analysis of mRNA expression of several pathogenic signature genes in Th17 cells differentiated with TGFβ1 and IL-6 in the presence of activated protein C (aPC) for 3 days in vitro. FIG. 23B depicts quantitative RT-PCR analysis of mRNA expression of several pathogenic signature genes in naïve CD4^+ T cells polarized under Th17 conditions, transduced with either GFP control retrovirus (Control RV) or PROCR-expressing retrovirus (PROCR RV) for 3 days. FIG. 23C depicts quantitative RT-PCR analysis of mRNA expression of several pathogenic signature genes in Th17 cells from EPCR δ/δmice and control mice differentiated with TGFβ1 and IL-6 for 3 days in vitro.
FIGS. 32A, 32B, 32C and 32D are a series of graphs depicting how PROCR and PD-1 expression affects Th17 pathogenicity. FIG. 32A depicts signature genes of pathogenic and non-pathogenic Th17 cells. Naïve CD4+ T cells were differentiated into non-pathogenic (TGFβ+IL-6) or pathogenic (TGFβ3+IL-6 or IL-β+IL-6) Th17 cells and PROCR expression was determined by quantitative PCR. FIG. 32B depicts how naïve WT or PROCRd/d CD4+ T cells were stimulated under Th17 polarizing conditions (TGFβ+IL-6) in the presence or absence of aPC. Quantitative expression of three pathogenic signature genes was determined on day 3. […] Mice were monitored for EAE. […]. […]

Th17 cells = assay: IL-17 / IFN-γ production of Th17 cells differentiated with activated protein C (intracellular staining, ELISA); assay type: cell-based, mouse; conditions: aPC 300 nM, anti-CD3/anti-CD28, TGF-β+IL-6; flow cytometry day 3, ELISA day 3 and 5
Experimental: FIG. 20A depicts how naïve CD4+ T cells were differentiated into Th17 cells by anti-CD3/anti-CD28 stimulation in the presence of activated protein C (aPC, 300 nM), the ligand of PROCR. On day 3, cells were stimulated with PMA and Ionomycin for 4 hr, stained intracellularly for IFN-γ and IL-17 and analyzed by flow cytometry. FIG. 20B depicts IL-17 production from Th17 cells (TGF-β+IL-6) differentiated with or without activated protein C (aPC and Ctl, respectively) was assessed by ELISA on Day 3 and 5. FIG. 20C depicts how naïve CD4+ T cells were polarized under Th17 conditions (TGF-β+IL-6), transduced with either GFP control retrovirus (Ctl RV) or PROCR-expressing retrovirus (PROCR RV). Intracellular expression of IFN-γ and IL-17 in GFP+ cells were assessed by flow cytometry. FIG. 20D depicts how naïve CD4+ T cells from EPCR δ/δmice and control mice were polarized under Th17 conditions with TGF-β1 and IL-6. Intracellular expression of IFN-γ and IL-17 were assessed by flow cytometry. […]
Naïve T cells from knockout mice and their wild type controls were cultured as described above, their supernatants were collected after 72 h, and cytokine concentrations were determined by ELISA (antibodies for IL-17 and IL-10 from BD Bioscience) or by cytometric bead array for the indicated cytokines (BD Bioscience), according to the manufacturers' instructions (FIG. 5, FIG. 16).

activated protein C
mRNA expression of pathogenic signature genes (PROCR; Th17 cells differentiated with TGFβ1 and IL-6 in the presence of aPC for 3 days in vitro): impairs some pathogenic signature genes in Th17 cells; also recorded: induces a downregulation of the pathogenic signature genes IL-3, CXCL3, CCL4 and Pdp; also recorded: decreased the expression of some of the genes identified as a part of the pathogenic signature of Th17 cells
expression of non-pathogenic signature genes (PROCR; Th17 polarizing conditions (TGFβ+IL-6) in the presence or absence of aPC, day 3): induces some non-pathogenic signature genes
cytokine production (IL-17, IFN-γ) from Th17 cells (Th17 cells): not essential for cytokine production from Th17 cells
